In patent publication US20080207705A1, “Heteroaryl-Imidazole Derivatives as Cannabinoid CB1 Receptor Antagonists” (Green Cross Corporation, priority 2007, published 2008):
Read-outs that look alike come from different tables or passages of the source.

Molecular target: T1, rat CB-1 receptor (Rattus norvegicus, UniProt P20272)
T1 construct: The tissue obtained from the brain of SD rats was homogenized; from tissue; host or cells: brain of SD rats (membrane pellet of homogenate)
Assay: rat CB-1 receptor binding protocol with [3H]CP-55940

[1] = [3H]CP-55940, brain tissue of SD rats, 30 °C for 60 min, read-out: IC50

T1 sequence (P20272 whole entry): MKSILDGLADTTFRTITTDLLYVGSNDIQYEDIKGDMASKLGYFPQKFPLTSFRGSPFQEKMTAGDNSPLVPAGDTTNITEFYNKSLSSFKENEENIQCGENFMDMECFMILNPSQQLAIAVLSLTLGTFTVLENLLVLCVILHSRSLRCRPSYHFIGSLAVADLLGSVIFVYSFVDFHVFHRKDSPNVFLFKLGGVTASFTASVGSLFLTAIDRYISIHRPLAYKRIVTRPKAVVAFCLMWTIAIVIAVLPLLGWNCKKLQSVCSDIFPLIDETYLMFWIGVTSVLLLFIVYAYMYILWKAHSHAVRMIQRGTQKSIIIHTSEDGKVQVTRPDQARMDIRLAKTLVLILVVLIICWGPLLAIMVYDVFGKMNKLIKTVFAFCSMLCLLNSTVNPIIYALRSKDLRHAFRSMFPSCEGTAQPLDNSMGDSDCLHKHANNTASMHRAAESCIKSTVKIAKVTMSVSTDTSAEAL

| Structure (SMILES) | IC50 [1] [nM] | IC50 [nM] |
| --- | --- | --- |
| Clc1ccc(C2(c3nnc(-c4nc(-c5ccc(Cl)cc5Cl)n(-c5ccc(Br)cc5)c4Cn4cncn4)o3)CC2)cc1 [Example 77, 2-(5-((1H-1,2,4-Triazol-1-yl)methyl)-1-(4-bromophenyl)-2-(2,4-dichlorophenyl)-1H-imidazol-4-yl)-5-(1-(4-chlorophenyl)cyclopropyl)-1,3,4-oxadiazole] | 3.36 | – |
| CC(C)(C)c1nnc(-c2nc(-c3ccc(Cl)cc3Cl)n(-c3ccc(Cl)cc3)c2C2CC2)s1 [Example 113, 2-tert-Butyl-5-(1-(4-chlorophenyl)-5-cyclopropyl-2-(2,4-dichlorophenyl)-1H-imidazol-4-yl)-1,3,4-thiadiazole] | – | 58 |
| CCCc1c(-c2nnc(C(C)(C)C)s2)nc(-c2ccc(Cl)cc2Cl)n1-c1ccc(Br)cc1 [Example 119, 2-(1-(4-Bromophenyl)-2-(2,4-dichlorophenyl)-5-propyl-1H-imidazol-4-yl)-5-tert-butyl-1,3,4-thiadiazole] | 13.5 | – |
| Cc1c(-c2nnc(C3CCCCC3)s2)nc(-c2ccc(Cl)cc2Cl)n1-c1ccc(Cl)cc1 [Example 91, 2-(1-(4-Chlorophenyl)-2-(2,4-dichlorophenyl)-5-methyl-1H-imidazol-4-yl)-5-cyclohexyl-1,3,4-thiadiazole] | 46 | – |
| Cc1c(-c2nnc(C3(C(F)(F)F)CCC3)s2)nc(-c2ccc(Cl)cc2Cl)n1-c1ccc(Br)cc1 [Example 137, 2-(1-(4-Bromophenyl)-2-(2,4-dichlorophenyl)-5-methyl-1H-imidazol-4-yl)-5-(1-(trifluoromethyl)cyclobutyl)-1,3,4-thiadiazole] | 8.52 | – |
| CCc1c(-c2nnc(C3CCC3)s2)nc(-c2ccc(Cl)cc2Cl)n1-c1ccc(Br)cc1 [Example 112, 2-(1-(4-Bromophenyl)-2-(2,4-dichlorophenyl)-5-ethyl-1H-imidazol-4-yl)-5-cyclobutyl-1,3,4-thiadiazole] | 14 | – |
| CCCc1c(-c2nnc(C3CCCCC3)o2)nc(-c2ccc(Cl)cc2Cl)n1-c1ccc(Br)cc1 [Example 30, 2-(1-(4-Bromophenyl)-2-(2,4-dichlorophenyl)-5-propyl-1H-imidazol-4-yl)-5-cyclohexyl-1,3,4-oxadiazole] | 392 | – |
| Cc1c(-c2ncc(C(C)(C)C)s2)nc(-c2ccc(Cl)cc2Cl)n1-c1ccc(Br)cc1 [Example 200, 2-(1-(4-Bromophenyl)-2-(2,4-dichlorophenyl)-5-methyl-1H-imidazol-4-yl)-5-tert-butylthiazole] | 16 | – |
| Cc1c(-c2nnc(C(C)c3ccccc3)s2)nc(-c2ccc(Cl)cc2Cl)n1-c1ccc(Cl)cc1 (stereo not drawn) [Example 100, 2-(1-(4-Chlorophenyl)-2-(2,4-dichlorophenyl)-5-methyl-1H-imidazol-4-yl)-5-(1-phenylethyl)-1,3,4-thiadiazole] | 16.9 | – |
| CCc1c(-c2nnc(C3(c4ccc(Cl)cc4)CC3)s2)nc(-c2ccc(Cl)cc2Cl)n1-c1ccc(Br)cc1 [Example 130, 2-(1-(4-Bromophenyl)-2-(2,4-dichlorophenyl)-5-ethyl-1H-imidazol-4-yl)-5-(1-(4-chlorophenyl)cyclopropyl)-1,3,4-thiadiazole] | 4.53 | – |
| Cc1c(-c2nnc(C3(C(F)(F)F)CCC3)o2)nc(-c2ccccc2Cl)n1-c1ccc(Br)cc1 [Example 53, 2-(1-(4-Bromophenyl)-2-(2-chlorophenyl)-5-methyl-1H-imidazol-4-yl)-5-(1-(trifluoromethyl)cyclobutyl)-1,3,4-oxadiazole] | – | 11.4 |
| Cc1c(-c2nnc(C3(c4ccc(Cl)cc4)CC3)o2)nc(-c2ccc(Cl)cc2Cl)n1-c1ccc(Br)cc1 [Example 48, 2-(1-(4-Bromophenyl)-2-(2,4-dichlorophenyl)-5-methyl-1H-imidazol-4-yl)-5-(1-(4-chlorophenyl)cyclopropyl)-1,3,4-oxadiazole] | 18.7 | – |
| Cc1c(-c2nnc(C3CCCCC3)o2)nc(-c2ccc(Cl)cc2Cl)n1-c1ccc(Br)cc1 [Example 19, 2-(1-(4-Bromophenyl)-2-(2,4-dichlorophenyl)-5-methyl-1H-imidazol-4-yl)-5-cyclohexyl-1,3,4-oxadiazole] | – | 70 |
| CCc1c(-c2nnc(C3(c4ccc(Cl)cc4Cl)CC3)s2)nc(-c2ccc(Cl)cc2Cl)n1-c1ccc(Br)cc1 [Example 134, 2-(1-(4-Bromophenyl)-2-(2,4-dichlorophenyl)-5-ethyl-1H-imidazol-4-yl)-5-(1-(2,4-dichlorophenyl)cyclopropyl)-1,3,4-thiadiazole] | 6.57 | – |
| Cc1c(-c2ncc(C3CCCCC3)s2)nc(-c2ccc(Cl)cc2Cl)n1-c1ccc(Cl)cc1 [Example 193, 2-(1-(4-Chlorophenyl)-2-(2,4-dichlorophenyl)-5-methyl-1H-imidazol-4-yl)-5-cyclohexylthiazole] | 74.5 | – |
| CCc1c(-c2nnc(C3(C(F)(F)F)CCC3)o2)nc(-c2ccc(Cl)cc2Cl)n1-c1ccc(Br)cc1 [Example 50, 2-(1-(4-Bromophenyl)-2-(2,4-dichlorophenyl)-5-ethyl-1H-imidazol-4-yl)-5-(1-(trifluoromethyl)cyclobutyl)-1,3,4-oxadiazole] | – | 9.56 |
| Cc1c(-c2nnc(C(C)C)o2)nc(-c2ccc(Cl)cc2Cl)n1-c1ccc(Cl)cc1 [Example 9, 2-(1-(4-Chlorophenyl)-2-(2,4-dichlorophenyl)-5-methyl-1H-imidazol-4-yl)-5-isopropyl-1,3,4-oxadiazole] | – | 25.8 |
| Cc1c(-c2nnc(C3(C(F)(F)F)CC3)s2)nc(-c2ccc(Cl)cc2Cl)n1-c1ccc(Br)cc1 [Example 136, 2-(1-(4-Bromophenyl)-2-(2,4-dichlorophenyl)-5-methyl-1H-imidazol-4-yl)-5-(1-(trifluoromethyl)cyclopropyl)-1,3,4-thiadiazole] | 47.1 | – |

Now from value to compound, other results behind:

| IC50 [1] [nM] | Structure (SMILES) | IC50 [nM] |
| --- | --- | --- |
| 12.7 | CCCC(C)c1nnc(-c2nc(-c3ccc(Cl)cc3Cl)n(-c3ccc(Cl)cc3)c2C)s1 (stereo not drawn) [Example 96, 2-(1-(4-Chlorophenyl)-2-(2,4-dichlorophenyl)-5-methyl-1H-imidazol-4-yl)-5-(pentan-2-yl)-1,3,4-thiadiazole] | – |
| 11.4 | CCc1c(-c2nnc(C3(c4ccc(Cl)cc4)CCCC3)o2)nc(-c2ccc(Cl)cc2Cl)n1-c1ccc(Br)cc1 [Example 45, 2-(1-(4-Bromophenyl)-2-(2,4-dichlorophenyl)-5-ethyl-1H-imidazol-4-yl)-5-(1-(4-chlorophenyl)cyclopentyl)-1,3,4-oxadiazole] | – |
| 11.7 | CCCc1c(-c2nnc(C3(c4ccc(Cl)cc4)CCC3)o2)nc(-c2ccc(Cl)cc2Cl)n1-c1ccc(Cl)cc1 [Example 38, 2-(1-(4-Chlorophenyl)-2-(2,4-dichlorophenyl)-5-propyl-1H-imidazol-4-yl)-5-(1-(4-chlorophenyl)cyclobutyl)-1,3,4-oxadiazole] | – |
| 16.7 | CCc1c(-c2nnc(C3(C(F)(F)F)CC3)o2)nc(-c2ccc(Cl)cc2Cl)n1-c1ccc(Br)cc1 [Example 49, 2-(1-(4-Bromophenyl)-2-(2,4-dichlorophenyl)-5-ethyl-1H-imidazol-4-yl)-5-(1-(trifluoromethyl)cyclopropyl)-1,3,4-oxadiazole] | – |
| 84 | CCc1cnc(-c2nc(-c3ccc(Cl)cc3Cl)n(-c3ccc(Cl)cc3)c2C)o1 [Example 181, 2-(1-(4-Chlorophenyl)-2-(2,4-dichlorophenyl)-5-methyl-1H-imidazol-4-yl)-5-ethyloxazole] | – |
| 79.9 | CC(C)(C)c1nnc(-c2nc(-c3ccc(Cl)cc3Cl)n(-c3ccc(Cl)cc3)c2C2CC2)o1 [Example 24, 2-tert-Butyl-5-(1-(4-chlorophenyl)-5-cyclopropyl-2-(2,4-dichlorophenyl)-1H-imidazol-4-yl)-1,3,4-oxadiazole] | – |
| 25.8 | CCc1c(-c2nnc(C3CCCC3)o2)nc(-c2ccc(Cl)cc2Cl)n1-c1ccc(Cl)cc1 [Example 13, 2-(1-(4-Chlorophenyl)-2-(2,4-dichlorophenyl)-5-ethyl-1H-imidazol-4-yl)-5-cyclopentyl-1,3,4-oxadiazole] | – |
| 16.1 | CCc1c(-c2nnc(C3CCC3)s2)nc(-c2ccc(Cl)cc2Cl)n1-c1ccc(Cl)cc1 [Example 103, 2-(1-(4-Chlorophenyl)-2-(2,4-dichlorophenyl)-5-ethyl-1H-imidazol-4-yl)-5-cyclobutyl-1,3,4-thiadiazole] | – |
| 27.6 | Cc1c(-c2nnc(C3CCCCCC3)o2)nc(-c2ccc(Cl)cc2Cl)n1-c1ccc(Cl)cc1 [Example 5, 2-(1-(4-Chlorophenyl)-2-(2,4-dichlorophenyl)-5-methyl-1H-imidazol-4-yl)-5-cycloheptyl-1,3,4-oxadiazole] | – |
| 22.2 | Cc1c(-c2nnc(C(C)C)s2)nc(-c2ccc(Cl)cc2Cl)n1-c1ccc(Cl)cc1 [Example 98, 2-(1-(4-Chlorophenyl)-2-(2,4-dichlorophenyl)-5-methyl-1H-imidazol-4-yl)-5-isopropyl-1,3,4-thiadiazole] | – |
| 24.1 | CCc1c(-c2nnc(C3CCC3)o2)nc(-c2ccc(Cl)cc2Cl)n1-c1ccc(Br)cc1 [Example 23, 2-(1-(4-Bromophenyl)-2-(2,4-dichlorophenyl)-5-ethyl-1H-imidazol-4-yl)-5-cyclobutyl-1,3,4-oxadiazole] | – |
| 11.2 | CCCCC(C)c1nnc(-c2nc(-c3ccc(Cl)cc3Cl)n(-c3ccc(Cl)cc3)c2CC)o1 (stereo not drawn) [Example 16, 2-(1-(4-Chlorophenyl)-2-(2,4-dichlorophenyl)-5-ethyl-1H-imidazol-4-yl)-5-(hexan-2-yl)-1,3,4-oxadiazole] | – |
| 20.2 | Cc1c(-c2nnc(C(C)(C)C)s2)nc(-c2ccc(Cl)cc2Cl)n1-c1ccc(Cl)cc1 [Example 90, 2-tert-Butyl-5-(1-(4-chlorophenyl)-2-(2,4-dichlorophenyl)-5-methyl-1H-imidazol-4-yl)-1,3,4-thiadiazole] | – |
| 17.9 | CCc1c(-c2nnc(C(C)CC)o2)nc(-c2ccc(Cl)cc2Cl)n1-c1ccc(Cl)cc1 (stereo not drawn) [Example 18, 2-sec-Butyl-5-(1-(4-chlorophenyl)-2-(2,4-dichlorophenyl)-5-ethyl-1H-imidazol-4-yl)-1,3,4-oxadiazole] | – |
| 90.2 | CCc1sc(-c2nc(-c3ccc(Cl)cc3Cl)n(-c3ccc(Cl)cc3)c2C)nc1C [Example 202, 2-(1-(4-Chlorophenyl)-2-(2,4-dichlorophenyl)-5-methyl-1H-imidazol-4-yl)-5-ethyl-4-methylthiazole] | – |
